≈ marks a conversion by molar mass, not a printed value.
Experiments:
[1] = test system: L. infantum promastigotes; experiment: Morphological evaluation by light microscopy (Diff-Quik), L. infantum; assay type: cell-based, Leishmania infantum; settings: amphotericin B at 1 µg/mL
Method: L. infantum, T. gallinae and G. duodenalis were studied at 0, and 48 h after treatment with germacrone (100 µg/mL), and controls (DMSO 1%, metronidazole at 10 µg/mL for T. gallinae and G. duodenalis and amphotericin B at 1 µg/mL for L. infantum).
For L. infantum and T. gallinae, cultures in the exponential growth phase (10^7 promastigotes/mL and 5 × 10^5 trophozoites/mL, respectively) were treated in 96-well microplates. At each time point, quadruplicates were assigned per condition: growth control, germacrone, and the corresponding positive control (metronidazole or amphotericin B). For microscopy, quadruplicate wells corresponding to the same condition/time point were pooled prior to centrifugation to obtain sufficient biomass and a representative pellet for smear preparation. Pooled samples per condition/time point were centrifuged, resuspended in FBS and spread onto microscope slides. Once dried, samples were fixed and stained with Diff-Quik (Medion Diagnostic AG, Düdingen, Switzerland) following the manufacturer’s instructions. Additionally, three wells per condition (triplicates) were used for the MTT assay, with absorbance measured by spectrophotometry after 48 h.
Morphological changes were analyzed using light microscopy. Experiments were performed as independent biological replicates on different plates, and one Diff-Quik stained smear was obtained per condition and time point per biological replicate. For morphometric analysis, a total of 30 trophozoites per condition and time point were measured across the independent biological replicates and were selected by consecutive sampling during a predefined serpentine (zig-zag) scan across the preparation. Up to two eligible trophozoites per field (intact, well-focused and non-overlapping) were measured in sequential fields until n = 30 was reached, avoiding subjective selection of “representative” cells. Overlapping, partially visible, out-of-focus, edge-of-field, or debris-obscured trophozoites were excluded a priori. Trophozoites were photographed using a researcher’s mobile phone mounted to the microscope ocular. Calibration was performed at the same magnification using a stage micrometre and applied in ImageJ v. 1.54d. One Diff-Quik stained smear was obtained per condition/time point per biological replicate Cell length, cell width, cell surface, nuclear length, nuclear width, axoneme (only Giardia), and length of axostyle (only T. gallinae) were measured with ImageJ software, and the data were recorded in an Excel database for statistical analysis.
The Shapiro–Wilk test was used to assess the normality of the morphological variables. When data followed a normal distribution, Student’s t-test was applied; otherwise, non-parametric tests, such as the Mann–Whitney U test, was used. Values of p < 0.05 were considered significant. For the morphological analysis, the mean, standard deviation, median, and interquartile range were calculated using SPSS version 20 (IBM Corp., Armonk, NY, USA).

[2] = test system: intracellular amastigotes of L. infantum; experiment: Infection index of DH82 macrophages infected with L. infantum (intracellular amastigotes); assay type: cell-based, Leishmania infantum; settings: 1 µg/mL, 48 h
[3] = test system: L. infantum promastigotes; design: method as in doi:10.1080/10412905.2013.820669; settings: cited from earlier work
Vero cells = test system: Vero cells; design: method as in PMID 36672727; settings: cited from earlier work
[4] = Cytotoxicity of pure compounds on Vero cells (MTT); assay type: cell-based; settings: African green monkey, Vero cells (kidney cells); 48 h exposure; 50% Vero cell mortality; MTT; read-out: Vero Cells CC50
Method: African green monkey kidney cells (Vero cells) were maintained in Dulbecco’s modified Eagle’s minimal essential medium (DMEM) (Thermo Fisher Scientific, Waltham, MA, USA) supplemented with 10% FBS and 1% Pen-Strep at 37 °C under a humidified atmosphere of 5% CO2/95% air.
Cells seeded in 96-well flat-bottom microplates with 100 μL medium per well (initial densities 10^4 cells per well) were exposed for 48 h to serial dilutions (100, 75, 50, 25, 10 and 1 µg/mL) of the tested compounds in DMSO (<1% final concentration). Cell viability was analyzed by the MTT colorimetric assay method, and the purple-colored formazan precipitate was dissolved with 100 μL of DMSO [23].
(§1) Data was analyzed using STATGRAPHICS Centurion XIX (https://www.statgraphics.com) (Statgraphics Technologies, Inc., The Plains, VA, USA). The mammalian cells and trophozoites viability were tested with each compound in a dose–response experiment to calculate their relative potency (CC50 or IC50 value, respectively). IC50 (μg/mL) expresses the dose of EOs, extracts or pure compounds needed to produce 50% mortality of trophozoites, while CC50 (μg/mL) expresses the dose of compounds necessary to produce 50% mortality of Vero cells.

[5] = test system: L. infantum promastigotes; experiment: Anti-Leishmania activity assay on promastigotes (MTT viability); assay type: cell-based; settings: pure compounds
Method: Anti-Leishmania (AL) activity was assessed on L. infantum promastigotes (MCAN/ES/98/LLM-722), kindly provided by Dr. J.M. Requena from CBM-CSIC, as well as on L. infantum (M/CAN/ES/96/BCN150 zymodeme MON-1), strain isolated from a dog with active visceral leishmaniasis. L. infantum promastigotes (MCAN/ES/98/LLM-722) were cultured in RPMI medium supplemented with 15% FBS and 10 μg/mL of hemin (Acros Organics, Madrid, Spain), grown at 26 °C. Promastigotes in logarithmic growth were seeded in 96-well flat-bottom plates at a volume of 100 μL of culture per well and incubated for 48 h. Promastigotes for macrophage infection (M/CAN/ES/96/BCN150 zymodeme MON-1) were maintained at 26 °C in Schneider’s insect medium (Lonza, Basel, Switzerland) supplemented with 10% FBS and 100 U/mL penicillin and 100 μg/mL streptomycin (Lonza, Basel, Switzerland) (Pen-Strep). Promastigotes in the stationary phase of growth (5–6 days) were washed twice in phosphate-buffered saline at 2700× g for 10 min at 22 °C and employed for macrophage infection.
EOs and pure compounds were solved in DMSO (Sigma, Madrid, Spain) (<1% final concentration). […] Trophozoites/promastigotes viability was assessed using the modified MTT colorimetric assay, as described previously in the literature, with results further validated by microscopic examination. The plate was analyzed in a spectrophotometer at a wavelength of 570 nm. The percentage of antiparasitic activity was calculated as growth inhibition, using the following formula: % AT = 100 − [(Ap − Ab) ÷ (Ac − Ab)] × 100, where Ap is the absorbance of the tested product, Ab the absorbance of the blank and Ac the absorbance of the control wells (culture without treatment).
Pure compounds were tested using the same method, although at concentrations of 100, 75, 50, 25, 10, and 1 μg/mL. Metronidazole (Acros Organics, Madrid, Spain) served as a reference compound for anti-Giardia activity and Anti-Trichomonas activity and amphotericin B for anti-Leishmania activity.
as §1

T. gallinae trophozoites = experiment: Anti-Trichomonas activity assay (MTT viability); assay type: cell-based; settings: pure compounds
Method: The anti-Trichomonas (AT) activity assay utilized T. gallinae trophozoites from an isolate obtained from a wood pigeon by Dr. […] EOs and pure compounds were solved in DMSO (Sigma, Madrid, Spain) (<1% final concentration). […] Trophozoites/promastigotes viability was assessed using the modified MTT colorimetric assay, as described previously in the literature, with results further validated by microscopic examination. The plate was analyzed in a spectrophotometer at a wavelength of 570 nm. The percentage of antiparasitic activity was calculated as growth inhibition, using the following formula: % AT = 100 - [(Ap - Ab) ÷ (Ac - Ab)] × 100, where Ap is the absorbance of the tested product, Ab the absorbance of the blank and Ac the absorbance of the control wells (culture without treatment). […] Metronidazole (Acros Organics, Madrid, Spain) served as a reference compound for anti-Giardia activity and Anti-Trichomonas activity and amphotericin B for anti-Leishmania activity. Data was analyzed using STATGRAPHICS Centurion XIX ([…].com) (Statgraphics Technologies, Inc., The Plains, VA, USA). The mammalian cells and trophozoites viability were tested with each compound in a dose-response experiment to calculate their relative potency (CC50 or IC50 value, respectively).

[6] = test system: G. duodenalis trophozoites; experiment: Anti-Giardia activity assay (MTT viability); assay type: cell-based; settings: pure compounds
Method: Anti-Giardia (AG) activity assays were conducted on G. duodenalis trophozoites from the ATCC® 30957 strain (assemblage A), using flat-bottom microwell plates in quadruplicate. […] Incubation was carried out for 24 h at 37 °C. EOs and pure compounds were solved in DMSO (Sigma, Madrid, Spain) (<1% final concentration). […] Trophozoites/promastigotes viability was assessed using the modified MTT colorimetric assay, as described previously in the literature, with results further validated by microscopic examination. The plate was analyzed in a spectrophotometer at a wavelength of 570 nm. The percentage of antiparasitic activity was calculated as growth inhibition, using the following formula: % AT = 100 - [(Ap - Ab) ÷ (Ac - Ab)] × 100, where Ap is the absorbance of the tested product, Ab the absorbance of the blank and Ac the absorbance of the control wells (culture without treatment). […] Metronidazole (Acros Organics, Madrid, Spain) served as a reference compound for anti-Giardia activity and Anti-Trichomonas activity and amphotericin B for anti-Leishmania activity. Data was analyzed using STATGRAPHICS Centurion XIX ([…].com) (Statgraphics Technologies, Inc., The Plains, VA, USA). The mammalian cells and trophozoites viability were tested with each compound in a dose-response experiment to calculate their relative potency (CC50 or IC50 value, respectively).

C[C@@H]1[C@H](O)[C@@H](C)/C=C/C=C/C=C/C=C/C=C/C=C/C=C/[C@H](O[C@@H]2O[C@H](C)[C@@H](O)[C@H](N)[C@@H]2O)C[C@@H]2O[C@](O)(C[C@@H](O)C[C@@H](O)[C@H](O)CC[C@@H](O)C[C@@H](O)CC(=O)O[C@H]1C)C[C@H](O)[C@H]2C(=O)O [AmB, amphotericin B]
morphological alterations of promastigotes [1]: strong morphological alterations | Infection Index ([2]; % infected x amastigotes per infected cell): 8.9 ± 0.0 | % Infected Cells ([2]; mean ± SD): 6.4 ± 3.7 % | nº Amastigotes/Infected Cell ([2]; mean ± SD): 1.4 ± 0.7 | L. infantum (pm) IC50 [3]: 0.01 [22] µg/mL | Vero Cells CC50 (Vero cells): 7.11 [21] µg/mL

C/C1=C\CC2(OC2(C)C)C(=O)C/C(C)=C/CC1 (stereo not drawn) [Compound 4]
CC50 at 48 h [4]: > 100 µg/mL | IC50 [5]: 88.8 µg/mL (≈ 379 µM) | IC50 (T. gallinae trophozoites): 51.6 µg/mL (≈ 220 µM) | IC50 [6]: > 100 µg/mL

CC(C)=C1CC(=O)[C@]2(C)CC[C@H]2[C@@H](C)CC1=O [Compound 3]
CC50 at 48 h [4]: > 100 µg/mL | IC50 [5]: 35.5 µg/mL (≈ 151 µM) | IC50 (T. gallinae trophozoites): > 100 µg/mL | IC50 [6]: > 100 µg/mL

C=C[C@]1(C)CC(=O)C(=C(C)C)C[C@H]1C(=C)C [Compound 1, β-elemenone]
CC50 at 48 h [4]: > 100 µg/mL | IC50 [5]: > 100 µg/mL | IC50 (T. gallinae trophozoites): > 100 µg/mL | IC50 [6]: > 100 µg/mL

Source: paper PMC12841663, “Antiprotozoal Potential of Cultivated Geranium macrorrhizum Against Giardia duodenalis, Trichomonas gallinae and Leishmania infantum” (International Journal of Molecular Sciences, 2026)
